Measurements reported in BigSolDB 2.1.

O=P(NCc1ccccc1)(Oc1ccccc1)Oc1ccccc1
solubility (mole fraction)
Conditions | in THF | in acetone | in acetonitrile | in chloroform | in dichloromethane | in ethyl acetate | in methanol | in methyl acetate | in toluene
288.15 K | – | – | – | 0.095 | 0.055 | – | – | 0.0168 | –
293.15 K | 0.0978 | 0.0447 | 0.0148 | 0.109 | 0.0724 | 0.0199 | 0.0111 | 0.0234 | 0.0109
298.15 K | 0.115 | 0.0587 | 0.0196 | 0.126 | 0.0965 | 0.0279 | 0.0158 | 0.0309 | 0.016
303.15 K | 0.132 | 0.0741 | 0.0264 | 0.143 | 0.126 | 0.0368 | 0.0231 | 0.0407 | 0.0228
308.15 K | 0.157 | 0.0986 | 0.0344 | 0.164 | 0.157 | 0.0484 | 0.0322 | 0.055 | 0.0312
313.15 K | 0.183 | 0.122 | 0.0431 | 0.191 | – | 0.0627 | 0.0449 | 0.0699 | 0.0428
318.15 K | 0.208 | 0.154 | 0.0591 | 0.218 | – | 0.0824 | 0.0629 | 0.094 | 0.0574
323.15 K | 0.24 | 0.198 | 0.0742 | 0.248 | – | 0.104 | 0.0875 | 0.122 | 0.0814
328.15 K | – | – | 0.0948 | 0.275 | – | 0.137 | 0.125 | – | 0.108
333.15 K | – | – | 0.122 | – | – | 0.182 | 0.166 | – | 0.146
338.15 K | – | – | 0.155 | – | – | – | – | – | 0.187
343.15 K | – | – | – | – | – | – | – | – | 0.243
